Source: the supplement of paper PMC12420376

Legend:
Assay in all cases: cell viability relative to untreated control (ex vivo patient spheroids); higher = less cytotoxic
Settings in all cases: 72 h
[1] = tested on: Gem015 (ex vivo spheroids of an HRD-positive high-grade serous ovarian cancer)
Protocol: (§1)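 Ex vivo 3D spheroid cultures from dissociated tumours of HGSOC patients (DET3CT platform) were treated for 72 h with dose matrices of carboplatin combined with birinapant or vorinostat (nM). Live (TMRM) and dead (POPO-1) cells were imaged and viability was expressed as % of untreated control.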

[2] = tested on: Gem243 (ex vivo spheroids of an HRD-positive high-grade serous ovarian cancer)
Protocol: as §1

[3] = tested on: Gem030 (ex vivo spheroids of an HRD-positive high-grade serous ovarian cancer)
Protocol: as §1

[4] = tested on: Gem105 (ex vivo spheroids of an HRD-negative high-grade serous ovarian cancer)
Protocol: as §1

[5] = tested on: Gem059 (ex vivo spheroids of an HRD-negative high-grade serous ovarian cancer)
Protocol: as §1

[6] = carboplatin concentration 10 nM, partner drug concentration 0.1 nM
[7] = carboplatin concentration 10 nM, partner drug concentration 1 nM
[8] = carboplatin concentration 10 nM, partner drug concentration 10 nM
[9] = carboplatin concentration 10 nM, partner drug concentration 100 nM
[10] = carboplatin concentration 10 nM, partner drug concentration 1000 nM
[11] = carboplatin concentration 100 nM, partner drug concentration 0.1 nM
[12] = carboplatin concentration 100 nM, partner drug concentration 1 nM
[13] = carboplatin concentration 100 nM, partner drug concentration 10 nM
[14] = carboplatin concentration 100 nM, partner drug concentration 100 nM
[15] = carboplatin concentration 100 nM, partner drug concentration 1000 nM
[16] = carboplatin concentration 1000 nM, partner drug concentration 0.1 nM
[17] = carboplatin concentration 1000 nM, partner drug concentration 1 nM
[18] = carboplatin concentration 1000 nM, partner drug concentration 10 nM
[19] = carboplatin concentration 1000 nM, partner drug concentration 100 nM
[20] = carboplatin concentration 1000 nM, partner drug concentration 1000 nM
[21] = carboplatin concentration 10000 nM, partner drug concentration 0 nM
[22] = carboplatin concentration 10000 nM, partner drug concentration 0.1 nM
[23] = carboplatin concentration 10000 nM, partner drug concentration 1 nM
[24] = carboplatin concentration 10000 nM, partner drug concentration 10 nM
[25] = carboplatin concentration 10000 nM, partner drug concentration 100 nM
[26] = carboplatin concentration 10000 nM, partner drug concentration 1000 nM
[27] = carboplatin concentration 100000 nM, partner drug concentration 0 nM
[28] = carboplatin concentration 100000 nM, partner drug concentration 0.1 nM
[29] = carboplatin concentration 100000 nM, partner drug concentration 1 nM
[30] = carboplatin concentration 100000 nM, partner drug concentration 10 nM
[31] = carboplatin concentration 100000 nM, partner drug concentration 100 nM
[32] = carboplatin concentration 100000 nM, partner drug concentration 1000 nM
[33] = carboplatin concentration 10 nM, partner drug concentration 0 nM
[34] = carboplatin concentration 10 nM, partner drug concentration 10000 nM
[35] = carboplatin concentration 100 nM, partner drug concentration 0 nM
[36] = carboplatin concentration 100 nM, partner drug concentration 10000 nM
[37] = carboplatin concentration 1000 nM, partner drug concentration 0 nM
[38] = carboplatin concentration 1000 nM, partner drug concentration 10000 nM
[39] = carboplatin concentration 10000 nM, partner drug concentration 10000 nM
[40] = carboplatin concentration 100000 nM, partner drug concentration 10000 nM

O=C(O)C1(C(=O)O)CCC1.[NH2-].[NH2-].[Pt+2] [Carboplatin] + CC[C@H](NC(=O)[C@H](C)NC)C(=O)N1C[C@@H](O)C[C@H]1Cc1c(-c2[nH]c3cc(F)ccc3c2C[C@@H]2C[C@H](O)CN2C(=O)[C@H](CC)NC(=O)[C@H](C)NC)[nH]c2cc(F)ccc12 [Birinapant]
cell viability [1, 6]: 100%
cell viability [1, 7]: 93.1%
cell viability [1, 8]: 93.5%
cell viability [1, 9]: 82%
cell viability [1, 10]: 55.1%
cell viability [1, 11]: 98.5%
cell viability [1, 12]: 90%
cell viability [1, 13]: 101%
cell viability [1, 14]: 77%
cell viability [1, 15]: 67.2%
cell viability [1, 16]: 103%
cell viability [1, 17]: 89.1%
cell viability [1, 18]: 81.6%
cell viability [1, 19]: 85.2%
cell viability [1, 20]: 59.3%
cell viability [1, 21]: 91.1%
cell viability [1, 22]: 73.5%
cell viability [1, 23]: 97.6%
cell viability [1, 24]: 89.5%
cell viability [1, 25]: 84.6%
cell viability [1, 26]: 59%
cell viability [1, 27]: 61.2%
cell viability [1, 28]: 58.2%
cell viability [1, 29]: 75.8%
cell viability [1, 30]: 73.6%
cell viability [1, 31]: 58.7%
cell viability [1, 32]: 39.9%
cell viability [2, 6]: 92.7%
cell viability [2, 7]: 105%
cell viability [2, 8]: 80.2%
cell viability [2, 9]: 52.3%
cell viability [2, 10]: 13.7%
cell viability [2, 11]: 108%
cell viability [2, 12]: 105%
cell viability [2, 13]: 84.7%
cell viability [2, 14]: 41.3%
cell viability [2, 15]: 15.9%
cell viability [2, 16]: 95.4%
cell viability [2, 17]: 94.8%
cell viability [2, 18]: 93.9%
cell viability [2, 19]: 45.3%
cell viability [2, 20]: 15.2%
cell viability [2, 21]: 89.9%
cell viability [2, 22]: 90.9%
cell viability [2, 23]: 77.3%
cell viability [2, 24]: 82.9%
cell viability [2, 25]: 42.4%
cell viability [2, 26]: 13.9%
cell viability [2, 27]: 23.6%
cell viability [2, 28]: 28.8%
cell viability [2, 29]: 24.9%
cell viability [2, 30]: 14%
cell viability [2, 31]: 7.4%
cell viability [2, 32]: 6%
cell viability [3, 6]: 99.1%
cell viability [3, 7]: 105%
cell viability [3, 8]: 99.7%
cell viability [3, 9]: 95.4%
cell viability [3, 10]: 59.2%
cell viability [3, 11]: 106%
cell viability [3, 12]: 115%
cell viability [3, 13]: 102%
cell viability [3, 14]: 92.5%
cell viability [3, 15]: 60.8%
cell viability [3, 16]: 104%
cell viability [3, 17]: 91.7%
cell viability [3, 18]: 101%
cell viability [3, 19]: 88.9%
cell viability [3, 20]: 59.8%
cell viability [3, 21]: 105%
cell viability [3, 22]: 102%
cell viability [3, 23]: 99.6%
cell viability [3, 24]: 94.2%
cell viability [3, 25]: 90.1%
cell viability [3, 26]: 59.3%
cell viability [3, 27]: 52.2%
cell viability [3, 28]: 60.7%
cell viability [3, 29]: 68%
cell viability [3, 30]: 68.4%
cell viability [3, 31]: 47.1%
cell viability [3, 32]: 27.3%
cell viability [4, 6]: 102%
cell viability [4, 7]: 90.8%
cell viability [4, 8]: 94.9%
cell viability [4, 9]: 105%
cell viability [4, 10]: 72.5%
cell viability [4, 11]: 102%
cell viability [4, 12]: 82%
cell viability [4, 13]: 100%
cell viability [4, 14]: 89.4%
cell viability [4, 15]: 79.4%
cell viability [4, 16]: 110%
cell viability [4, 17]: 89.4%
cell viability [4, 18]: 109%
cell viability [4, 19]: 89.2%
cell viability [4, 20]: 87.6%
cell viability [4, 21]: 91.9%
cell viability [4, 22]: 97.7%
cell viability [4, 23]: 83.8%
cell viability [4, 24]: 92.5%
cell viability [4, 25]: 80%
cell viability [4, 26]: 81.6%
cell viability [4, 27]: 38.7%
cell viability [4, 28]: 41.1%
cell viability [4, 29]: 51.4%
cell viability [4, 30]: 42.1%
cell viability [4, 31]: 30.3%
cell viability [4, 32]: 27.6%
cell viability [5, 6]: 109%
cell viability [5, 7]: 101%
cell viability [5, 8]: 119%
cell viability [5, 9]: 105%
cell viability [5, 10]: 102%
cell viability [5, 11]: 99.2%
cell viability [5, 12]: 99.2%
cell viability [5, 13]: 122%
cell viability [5, 14]: 97.4%
cell viability [5, 15]: 106%
cell viability [5, 16]: 89.4%
cell viability [5, 17]: 109%
cell viability [5, 18]: 117%
cell viability [5, 19]: 106%
cell viability [5, 20]: 118%
cell viability [5, 21]: 100%
cell viability [5, 22]: 102%
cell viability [5, 23]: 99.8%
cell viability [5, 24]: 97.5%
cell viability [5, 25]: 112%
cell viability [5, 26]: 99%
cell viability [5, 27]: 77.4%
cell viability [5, 28]: 82.5%
cell viability [5, 29]: 97.3%
cell viability [5, 30]: 79.6%
cell viability [5, 31]: 85.4%
cell viability [5, 32]: 90.7%

O=C(O)C1(C(=O)O)CCC1.[NH2-].[NH2-].[Pt+2] [Carboplatin] + O=C(CCCCCCC(=O)Nc1ccccc1)NO [Vorinostat]
cell viability [1, 33]: 85.7%
cell viability [1, 7]: 100%
cell viability [1, 8]: 97.5%
cell viability [1, 9]: 97.6%
cell viability [1, 10]: 76.3%
cell viability [1, 34]: 35.6%
cell viability [1, 35]: 97.2%
cell viability [1, 12]: 94.2%
cell viability [1, 13]: 92.8%
cell viability [1, 14]: 93.8%
cell viability [1, 15]: 79.3%
cell viability [1, 36]: 37.7%
cell viability [1, 37]: 88.1%
cell viability [1, 17]: 96.2%
cell viability [1, 18]: 91.6%
cell viability [1, 19]: 91.3%
cell viability [1, 20]: 71.6%
cell viability [1, 38]: 36.2%
cell viability [1, 21]: 91.1%
cell viability [1, 23]: 84.9%
cell viability [1, 24]: 97.1%
cell viability [1, 25]: 95.6%
cell viability [1, 26]: 77.2%
cell viability [1, 39]: 36.1%
cell viability [1, 27]: 61.2%
cell viability [1, 29]: 71.2%
cell viability [1, 30]: 77.1%
cell viability [1, 31]: 74.6%
cell viability [1, 32]: 63.5%
cell viability [1, 40]: 32.3%
cell viability [2, 33]: 90.3%
cell viability [2, 7]: 88.4%
cell viability [2, 8]: 82.3%
cell viability [2, 9]: 101%
cell viability [2, 10]: 67.9%
cell viability [2, 34]: 19.7%
cell viability [2, 35]: 87.3%
cell viability [2, 12]: 98%
cell viability [2, 13]: 91.7%
cell viability [2, 14]: 90.8%
cell viability [2, 15]: 74.3%
cell viability [2, 36]: 13.3%
cell viability [2, 37]: 107%
cell viability [2, 17]: 105%
cell viability [2, 18]: 47.4%
cell viability [2, 19]: 101%
cell viability [2, 20]: 68.9%
cell viability [2, 38]: 10.1%
cell viability [2, 21]: 89.9%
cell viability [2, 23]: 95.3%
cell viability [2, 24]: 101%
cell viability [2, 25]: 104%
cell viability [2, 26]: 42.1%
cell viability [2, 39]: 10.4%
cell viability [2, 27]: 23.6%
cell viability [2, 29]: 21.6%
cell viability [2, 30]: 17%
cell viability [2, 31]: 11.3%
cell viability [2, 32]: 7.3%
cell viability [2, 40]: 6.7%
cell viability [3, 33]: 94%
cell viability [3, 7]: 101%
cell viability [3, 8]: 104%
cell viability [3, 9]: 115%
cell viability [3, 10]: 100%
cell viability [3, 34]: 47.4%
cell viability [3, 35]: 102%
cell viability [3, 12]: 108%
cell viability [3, 13]: 107%
cell viability [3, 14]: 98.2%
cell viability [3, 15]: 101%
cell viability [3, 36]: 40.2%
cell viability [3, 37]: 107%
cell viability [3, 17]: 110%
cell viability [3, 18]: 115%
cell viability [3, 19]: 105%
cell viability [3, 20]: 106%
cell viability [3, 38]: 41%
cell viability [3, 21]: 105%
cell viability [3, 23]: 116%
cell viability [3, 24]: 102%
cell viability [3, 25]: 111%
cell viability [3, 26]: 91.1%
cell viability [3, 39]: 40%
cell viability [3, 27]: 52.2%
cell viability [3, 29]: 87.2%
cell viability [3, 30]: 69.8%
cell viability [3, 31]: 65.9%
cell viability [3, 32]: 67.5%
cell viability [3, 40]: 17.9%
cell viability [4, 33]: 105%
cell viability [4, 7]: 82.6%
cell viability [4, 8]: 99.6%
cell viability [4, 9]: 94.3%
cell viability [4, 10]: 86.4%
cell viability [4, 34]: 33.3%
cell viability [4, 35]: 103%
cell viability [4, 12]: 90.7%
cell viability [4, 13]: 96.2%
cell viability [4, 14]: 93.6%
cell viability [4, 15]: 84.9%
cell viability [4, 36]: 34.5%
cell viability [4, 37]: 89.2%
cell viability [4, 17]: 102%
cell viability [4, 18]: 93.5%
cell viability [4, 19]: 112%
cell viability [4, 20]: 84.8%
cell viability [4, 38]: 39.9%
cell viability [4, 21]: 91.9%
cell viability [4, 23]: 105%
cell viability [4, 24]: 93.4%
cell viability [4, 25]: 100%
cell viability [4, 26]: 79.4%
cell viability [4, 39]: 36%
cell viability [4, 27]: 38.7%
cell viability [4, 29]: 52.6%
cell viability [4, 30]: 54%
cell viability [4, 31]: 53.8%
cell viability [4, 32]: 31.9%
cell viability [4, 40]: 10.5%
cell viability [5, 33]: 109%
cell viability [5, 7]: 99.3%
cell viability [5, 8]: 91.5%
cell viability [5, 9]: 110%
cell viability [5, 10]: 103%
cell viability [5, 34]: 86.5%
cell viability [5, 35]: 107%
cell viability [5, 12]: 102%
cell viability [5, 13]: 105%
cell viability [5, 14]: 114%
cell viability [5, 15]: 102%
cell viability [5, 36]: 95.8%
cell viability [5, 37]: 91.5%
cell viability [5, 17]: 107%
cell viability [5, 18]: 104%
cell viability [5, 19]: 96.5%
cell viability [5, 20]: 110%
cell viability [5, 38]: 94.4%
cell viability [5, 21]: 100%
cell viability [5, 23]: 103%
cell viability [5, 24]: 116%
cell viability [5, 25]: 101%
cell viability [5, 26]: 114%
cell viability [5, 39]: 95%
cell viability [5, 27]: 77.4%
cell viability [5, 29]: 81.7%
cell viability [5, 30]: 81.9%
cell viability [5, 31]: 71.5%
cell viability [5, 32]: 85%
cell viability [5, 40]: 71.2%
